# Experimental data: article PMC5791972 (PLoS ONE, 2018)
# Like-named read-outs stand apart in the source and are kept apart here.
# How the values were obtained:
# AR (h) = biological target: T1, AR (h) (Homo sapiens, UniProt P10275, T878A); assay type: binding; conditions: 1.0E-06 M
# T1 construct: AR (h) LNCaP cells [3H]methyltrienolone; host or cells: LNCaP cells (cytosol)
# T1 sequence (P10275 1-920 T878A): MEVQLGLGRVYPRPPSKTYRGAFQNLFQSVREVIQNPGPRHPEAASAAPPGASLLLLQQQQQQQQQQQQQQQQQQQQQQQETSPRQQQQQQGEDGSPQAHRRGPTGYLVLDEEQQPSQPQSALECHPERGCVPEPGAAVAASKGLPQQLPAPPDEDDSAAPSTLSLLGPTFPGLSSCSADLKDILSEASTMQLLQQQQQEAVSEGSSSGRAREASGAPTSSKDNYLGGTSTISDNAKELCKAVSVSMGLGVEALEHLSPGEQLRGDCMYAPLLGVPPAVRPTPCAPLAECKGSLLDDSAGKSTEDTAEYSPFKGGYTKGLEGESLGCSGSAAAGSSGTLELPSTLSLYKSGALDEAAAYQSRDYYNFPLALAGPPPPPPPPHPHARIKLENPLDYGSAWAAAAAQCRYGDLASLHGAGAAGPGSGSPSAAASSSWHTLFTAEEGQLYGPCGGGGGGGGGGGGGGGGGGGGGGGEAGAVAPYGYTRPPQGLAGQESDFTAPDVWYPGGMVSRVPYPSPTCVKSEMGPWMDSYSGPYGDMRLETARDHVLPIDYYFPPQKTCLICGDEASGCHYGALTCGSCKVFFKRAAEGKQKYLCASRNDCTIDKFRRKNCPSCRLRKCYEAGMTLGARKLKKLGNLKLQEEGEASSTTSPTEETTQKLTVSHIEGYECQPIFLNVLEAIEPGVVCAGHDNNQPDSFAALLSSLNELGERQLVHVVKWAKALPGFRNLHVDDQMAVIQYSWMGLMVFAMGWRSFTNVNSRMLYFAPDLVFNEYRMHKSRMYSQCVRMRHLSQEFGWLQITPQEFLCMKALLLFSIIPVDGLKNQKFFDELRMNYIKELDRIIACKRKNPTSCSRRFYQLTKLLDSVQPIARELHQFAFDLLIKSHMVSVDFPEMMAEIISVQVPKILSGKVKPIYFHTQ
# Kv7.1 = biological target: T2, Kv7.1 (Homo sapiens, UniProt P51787); test: Ion channel selectivity patch clamp; assay type: cell-based; conditions: Voltage (+20 mV)
# T2 construct: expressed in transfected cells
# [1] = Brain homogenate assay (unbound fraction in brain); assay type: in vitro ADME; conditions: rat
# Method: Frozen rat brains were homogenized in PBS buffer (dilution factor D = 4). The homogenate was spiked with test compounds (1 μM final concentration, final concentration of DMSO was 0.1%) and subsequently dialyzed against PBS buffer for 8 hrs at 37°C in rapid equilibrium dialysis cells (RED-device, Pierce). At the end of the dialysis period, the dialysate was transferred into reaction tubes and mixed with an analytical internal standard. Tissue homogenate was added to buffer samples and buffer was added to tissue samples to ensure identical matrix composition for bioanalytical measurement. After protein precipitation using acetonitrile, samples were measured by LC-MS/MS. The free fraction was calculated as fu,app = (CPBS/Chomogenate). Since the brains were homogenized in the buffer, the observed free fraction values (fu,app) were extrapolated to the fractions unbound in the brain (fu*) based on the dilution (D) using the following formula: fu*=(1/D)/((1/fu,app−1)+1/D).
# [2] = system: basolateral amygdala neurons; test: Slice recordings of CCK-4 induced EPSCs; assay type: cell-based, mouse
# Ca2+ channel (N) = Ca2+ channel (N) (Rattus norvegicus, UniProt Q02294); test: biochemical; assay type: binding
# human TRPC5 (hTRPC5) = biological target: T3, human TRPC5 (hTRPC5) (Homo sapiens, UniProt Q9UL62); test: Fluorometric calcium influx assay; assay type: cell-based; conditions: indicator-assisted calcium influx, 1 pM to 1 μM, n = 8
# T3 construct: The cDNAs for various full-length ion channels were subcloned into pcDNA5/TO; expressed in transfected cells
# rolipram = assay type: binding, mouse; conditions: 1.0E-06 M
# PCP = assay type: binding, rat; conditions: 1.0E-06 M
# M3 (h) = M3 (h) (Homo sapiens, UniProt P20309); test: biochemical
# MCH1 (h) = biological target: T4, MCH1 (h) (Homo sapiens, UniProt Q99705); assay type: binding; conditions: 1.0E-06 M
# T4 construct: host or cells: CHO cells
# hTRPC5 = biological target: T5, hTRPC5 (Homo sapiens, UniProt Q9UL62); test: Whole-cell manual patch clamp; assay type: cell-based
# T5 construct: The cDNAs for various full-length ion channels were subcloned into pcDNA5/TO; expressed in transfected cells
# hERG = hERG (Homo sapiens, UniProt Q12809); test: Ion channel selectivity patch clamp
# rTRPC5 = rTRPC5 (Rattus norvegicus, UniProt Q8VD38); test: Whole-cell manual patch clamp; assay type: cell-based
# μ (MOP) (h) = μ (MOP) (h) (Homo sapiens, UniProt P35372); test: biochemical
# ACE (h) = biological target: T6, ACE (h) (Homo sapiens, UniProt P12821); test: enzyme assay; assay type: biochemical; conditions: 1.0E-06 M
# T6 construct: Cerep (contract assay)
# T4 sequence (Q99705 whole entry): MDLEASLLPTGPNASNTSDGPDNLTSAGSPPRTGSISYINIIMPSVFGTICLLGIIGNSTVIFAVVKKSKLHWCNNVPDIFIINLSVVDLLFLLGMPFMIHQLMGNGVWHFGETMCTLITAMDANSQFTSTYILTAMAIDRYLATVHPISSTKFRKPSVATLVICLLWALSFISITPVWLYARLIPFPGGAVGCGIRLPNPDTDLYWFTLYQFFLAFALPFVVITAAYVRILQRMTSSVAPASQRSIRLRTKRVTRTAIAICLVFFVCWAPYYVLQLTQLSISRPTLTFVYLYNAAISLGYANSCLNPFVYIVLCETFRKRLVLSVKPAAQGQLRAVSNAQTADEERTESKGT
# Chain of Ca2+ channel (N) (Q02294 whole entry): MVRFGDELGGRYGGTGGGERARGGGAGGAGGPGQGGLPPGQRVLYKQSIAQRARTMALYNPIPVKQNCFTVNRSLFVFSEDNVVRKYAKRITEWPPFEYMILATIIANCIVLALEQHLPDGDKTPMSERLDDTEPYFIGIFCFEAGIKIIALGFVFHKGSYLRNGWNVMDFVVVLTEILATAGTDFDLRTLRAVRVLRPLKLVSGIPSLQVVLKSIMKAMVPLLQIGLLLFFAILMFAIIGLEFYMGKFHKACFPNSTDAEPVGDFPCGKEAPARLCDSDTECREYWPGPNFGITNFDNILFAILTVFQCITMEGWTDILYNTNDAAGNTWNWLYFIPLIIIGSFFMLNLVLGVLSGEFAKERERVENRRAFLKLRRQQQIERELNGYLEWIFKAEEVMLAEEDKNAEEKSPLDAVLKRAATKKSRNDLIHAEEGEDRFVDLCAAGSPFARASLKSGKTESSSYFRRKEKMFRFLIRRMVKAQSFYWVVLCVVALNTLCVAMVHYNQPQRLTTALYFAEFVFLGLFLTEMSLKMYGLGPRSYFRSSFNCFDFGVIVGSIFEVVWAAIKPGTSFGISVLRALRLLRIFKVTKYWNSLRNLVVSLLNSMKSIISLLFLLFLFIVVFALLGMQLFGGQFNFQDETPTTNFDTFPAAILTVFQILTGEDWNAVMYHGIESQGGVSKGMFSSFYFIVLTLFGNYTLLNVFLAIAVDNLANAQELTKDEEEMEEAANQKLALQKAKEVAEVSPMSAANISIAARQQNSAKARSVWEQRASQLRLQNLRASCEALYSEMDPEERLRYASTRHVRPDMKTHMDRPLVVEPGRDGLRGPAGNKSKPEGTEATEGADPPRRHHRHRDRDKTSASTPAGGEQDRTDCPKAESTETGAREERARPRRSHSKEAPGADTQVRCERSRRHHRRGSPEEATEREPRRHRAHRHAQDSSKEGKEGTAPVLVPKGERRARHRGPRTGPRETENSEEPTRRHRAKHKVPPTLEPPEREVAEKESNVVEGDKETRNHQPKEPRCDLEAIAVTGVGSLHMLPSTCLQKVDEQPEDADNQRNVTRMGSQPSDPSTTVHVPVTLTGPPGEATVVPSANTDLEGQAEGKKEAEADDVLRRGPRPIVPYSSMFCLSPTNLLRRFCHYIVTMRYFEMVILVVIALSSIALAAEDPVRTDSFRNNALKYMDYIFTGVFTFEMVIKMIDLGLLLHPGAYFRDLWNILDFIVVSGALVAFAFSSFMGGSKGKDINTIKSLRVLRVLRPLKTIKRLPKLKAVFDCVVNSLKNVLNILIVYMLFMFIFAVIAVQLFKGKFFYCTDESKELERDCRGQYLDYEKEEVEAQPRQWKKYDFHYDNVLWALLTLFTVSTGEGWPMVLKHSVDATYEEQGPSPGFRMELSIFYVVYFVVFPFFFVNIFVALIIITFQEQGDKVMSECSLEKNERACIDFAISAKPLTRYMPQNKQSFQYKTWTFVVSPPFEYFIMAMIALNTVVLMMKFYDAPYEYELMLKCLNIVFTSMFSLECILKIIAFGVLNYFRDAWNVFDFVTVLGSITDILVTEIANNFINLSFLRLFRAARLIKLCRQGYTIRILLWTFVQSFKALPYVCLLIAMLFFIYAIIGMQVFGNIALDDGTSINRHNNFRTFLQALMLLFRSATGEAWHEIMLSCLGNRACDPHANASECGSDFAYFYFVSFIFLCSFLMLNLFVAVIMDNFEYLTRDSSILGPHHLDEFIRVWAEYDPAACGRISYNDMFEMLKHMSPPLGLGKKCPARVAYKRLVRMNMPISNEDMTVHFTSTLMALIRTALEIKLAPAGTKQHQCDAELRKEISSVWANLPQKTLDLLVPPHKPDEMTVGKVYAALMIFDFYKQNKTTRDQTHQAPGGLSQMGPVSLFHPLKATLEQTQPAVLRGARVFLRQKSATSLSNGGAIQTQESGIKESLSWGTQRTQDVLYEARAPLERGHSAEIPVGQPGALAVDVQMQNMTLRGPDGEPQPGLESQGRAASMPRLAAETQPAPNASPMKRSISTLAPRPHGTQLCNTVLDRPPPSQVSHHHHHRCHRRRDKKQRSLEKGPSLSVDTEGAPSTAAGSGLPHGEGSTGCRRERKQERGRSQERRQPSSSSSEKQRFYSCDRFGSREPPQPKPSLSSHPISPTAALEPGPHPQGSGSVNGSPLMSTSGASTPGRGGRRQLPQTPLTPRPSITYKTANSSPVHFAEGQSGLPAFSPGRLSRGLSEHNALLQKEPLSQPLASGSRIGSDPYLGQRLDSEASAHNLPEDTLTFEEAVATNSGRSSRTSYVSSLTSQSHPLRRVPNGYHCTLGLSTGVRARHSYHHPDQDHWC
# Chain of Ca2+ channel (N) (P54290 25-944 partner limits assumed): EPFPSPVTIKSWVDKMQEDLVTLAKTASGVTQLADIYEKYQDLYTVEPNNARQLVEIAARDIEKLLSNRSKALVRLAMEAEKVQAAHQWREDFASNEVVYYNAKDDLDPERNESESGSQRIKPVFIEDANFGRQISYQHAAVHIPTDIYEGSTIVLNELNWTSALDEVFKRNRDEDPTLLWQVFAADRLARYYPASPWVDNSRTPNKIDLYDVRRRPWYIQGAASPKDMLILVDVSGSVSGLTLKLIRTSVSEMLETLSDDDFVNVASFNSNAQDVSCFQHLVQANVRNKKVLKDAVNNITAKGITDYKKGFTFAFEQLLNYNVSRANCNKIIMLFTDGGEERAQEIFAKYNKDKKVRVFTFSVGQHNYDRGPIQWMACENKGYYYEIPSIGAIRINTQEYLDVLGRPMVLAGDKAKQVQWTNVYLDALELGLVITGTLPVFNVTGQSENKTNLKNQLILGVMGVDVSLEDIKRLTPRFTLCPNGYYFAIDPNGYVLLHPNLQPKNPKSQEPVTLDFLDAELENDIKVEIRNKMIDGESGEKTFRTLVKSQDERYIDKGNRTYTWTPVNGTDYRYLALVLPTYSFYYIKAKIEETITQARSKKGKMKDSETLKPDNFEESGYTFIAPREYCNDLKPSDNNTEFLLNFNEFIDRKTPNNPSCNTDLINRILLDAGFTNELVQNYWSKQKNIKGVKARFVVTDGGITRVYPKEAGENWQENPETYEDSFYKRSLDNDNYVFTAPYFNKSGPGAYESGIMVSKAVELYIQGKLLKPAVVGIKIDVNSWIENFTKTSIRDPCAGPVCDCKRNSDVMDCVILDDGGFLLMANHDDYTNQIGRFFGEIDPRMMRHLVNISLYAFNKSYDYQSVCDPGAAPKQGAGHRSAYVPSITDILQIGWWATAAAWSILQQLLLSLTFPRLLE
# Chain of Ca2+ channel (N) (P54290 945-1091 partner limits assumed): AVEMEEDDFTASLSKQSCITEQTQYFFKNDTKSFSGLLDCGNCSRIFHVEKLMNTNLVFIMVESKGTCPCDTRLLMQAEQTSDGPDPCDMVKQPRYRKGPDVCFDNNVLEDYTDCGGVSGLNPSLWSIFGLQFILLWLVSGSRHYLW
# Chain of Ca2+ channel (N) (P54287 whole entry partner): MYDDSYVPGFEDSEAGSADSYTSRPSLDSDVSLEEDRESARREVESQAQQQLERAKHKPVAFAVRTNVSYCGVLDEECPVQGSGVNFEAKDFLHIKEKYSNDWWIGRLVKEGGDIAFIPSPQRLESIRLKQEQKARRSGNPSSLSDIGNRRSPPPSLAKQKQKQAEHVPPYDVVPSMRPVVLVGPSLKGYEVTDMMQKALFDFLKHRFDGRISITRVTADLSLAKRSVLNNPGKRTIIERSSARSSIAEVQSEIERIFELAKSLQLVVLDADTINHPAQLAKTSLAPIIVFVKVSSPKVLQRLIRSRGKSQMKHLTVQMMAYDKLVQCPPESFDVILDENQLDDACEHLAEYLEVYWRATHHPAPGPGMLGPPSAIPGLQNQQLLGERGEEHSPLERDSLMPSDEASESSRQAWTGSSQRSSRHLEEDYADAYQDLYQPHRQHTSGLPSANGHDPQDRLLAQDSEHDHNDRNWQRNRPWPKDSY
# Chain of μ (MOP) (h) (P35372 whole entry): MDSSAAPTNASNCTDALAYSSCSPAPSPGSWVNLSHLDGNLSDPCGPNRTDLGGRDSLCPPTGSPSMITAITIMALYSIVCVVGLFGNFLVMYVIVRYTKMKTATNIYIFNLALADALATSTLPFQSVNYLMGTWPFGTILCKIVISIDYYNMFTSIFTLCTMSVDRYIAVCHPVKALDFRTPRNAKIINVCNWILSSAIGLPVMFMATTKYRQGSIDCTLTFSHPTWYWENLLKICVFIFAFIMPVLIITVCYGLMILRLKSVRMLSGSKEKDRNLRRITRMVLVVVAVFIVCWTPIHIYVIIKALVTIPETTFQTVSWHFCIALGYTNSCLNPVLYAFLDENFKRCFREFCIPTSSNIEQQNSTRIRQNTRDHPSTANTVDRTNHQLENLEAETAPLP
structure (smiles),measurement,setting,value
Cn1c(=O)n(CCCO)c(=O)c2c1nc(Oc1cccc(Cl)c1)n2Cc1ccc(Cl)cc1 [HC-070],inhibition at 1 µM,AR (h); read-out: % Inhibition 1st,11.1%
same,inhibition at 1 µM,AR (h); read-out: % Inhibition 2nd,3.2%
same,inhibition at 1 µM,AR (h); read-out: % Inhibition Mean,7.1%
same,IC50,Kv7.1,> 1900 nM
same,nonspecific tissue binding,"[1]; 8 h, 1 μM",> 99%
same,"fraction unbound at 8 h, 1 μM",[1]; brain homogenate,0.0028 ± 0.0002
same,effect on CCK-4 stimulated increase of postsynaptic currents,"[2]; 20 nM, CCK-4 1 μM",pronounced attenuation of the CCK-4 related effect
same,basal synaptic activity prior to CCK-4 addition,"[2]; slices pretreated with 20 nM HC-070, n = 8",154±35 postsynaptic currents/minute
Cn1c(=O)n(CCCO)c(=O)c2c1nc(Oc1cccc(OC(F)(F)F)c1)n2Cc1ccc(Cl)cc1 [HC-608],inhibition at 1 µM,Ca2+ channel (N); read-out: % Inhibition 1st,-5.9%
same,inhibition at 1 µM,Ca2+ channel (N); read-out: % Inhibition 2nd,-13.1%
same,inhibition at 1 µM,Ca2+ channel (N); read-out: % Inhibition Mean,-9.5%
same,IC50,human TRPC5 (hTRPC5),6.2 ± 0.5 nM
same,% Inhibition 1st,rolipram,-4.6%
same,% Inhibition 2nd,rolipram,0.5%
same,% Inhibition Mean,rolipram,-2.1%
same,% Inhibition 1st,PCP,-9%
same,% Inhibition 2nd,PCP,-0.1%
same,% Inhibition Mean,PCP,-4.6%
same,inhibition at 1 µM,M3 (h); read-out: % Inhibition 1st,-9%
same,inhibition at 1 µM,M3 (h); read-out: % Inhibition 2nd,-7.5%
same,inhibition at 1 µM,M3 (h); read-out: % Inhibition Mean,-8.2%
same,inhibition at 1 µM,MCH1 (h); read-out: % Inhibition 1st,7.9%
same,inhibition at 1 µM,MCH1 (h); read-out: % Inhibition 2nd,-27.2%
same,inhibition at 1 µM,MCH1 (h); read-out: % Inhibition Mean,-9.6%
same,IC50,hTRPC5; 20 μM carbachol/M1R,~0.67 nM
same,IC50,hTRPC5; La3+ (80 μM),~0.17 nM
same,IC50,hERG,1150 ± 130 nM
same,IC50,rTRPC5,~0.41 nM
same,inhibition at 1 µM,μ (MOP) (h); read-out: % Inhibition 1st,0.1%
same,inhibition at 1 µM,μ (MOP) (h); read-out: % Inhibition 2nd,-6.8%
same,inhibition at 1 µM,μ (MOP) (h); read-out: % Inhibition Mean,-3.3%
same,inhibition at 1 µM,ACE (h); read-out: % Inhibition 1st,0%
same,inhibition at 1 µM,ACE (h); read-out: % Inhibition 2nd,6%
same,inhibition at 1 µM,ACE (h); read-out: % Inhibition Mean,3%
